Source: patent US20220089575A1, “FARNESOID X RECEPTOR AGONISTS AND USES THEREOF” (Metacrine, Inc., priority 2017, published 2022)

Target: T1, hFXR (Homo sapiens, UniProt Q96RI1)
T1 construct: expressed in transfected cells; host or cells: CV-1 cells
T1 sequence (Q96RI1 1-486): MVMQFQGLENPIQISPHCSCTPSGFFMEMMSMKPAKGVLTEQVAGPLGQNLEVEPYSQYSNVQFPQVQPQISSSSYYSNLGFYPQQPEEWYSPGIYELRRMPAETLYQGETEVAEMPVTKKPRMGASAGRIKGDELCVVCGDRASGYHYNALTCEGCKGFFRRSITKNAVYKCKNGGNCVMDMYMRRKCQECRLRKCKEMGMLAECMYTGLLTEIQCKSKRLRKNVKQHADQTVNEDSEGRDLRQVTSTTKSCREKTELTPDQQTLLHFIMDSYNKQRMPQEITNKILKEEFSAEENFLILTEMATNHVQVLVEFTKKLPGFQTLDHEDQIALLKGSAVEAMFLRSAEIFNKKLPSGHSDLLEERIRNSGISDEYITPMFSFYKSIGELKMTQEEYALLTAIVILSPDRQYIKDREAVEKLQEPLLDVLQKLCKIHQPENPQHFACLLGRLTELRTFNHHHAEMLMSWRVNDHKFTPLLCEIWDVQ
T1 sequence (P19793 1-462 partner): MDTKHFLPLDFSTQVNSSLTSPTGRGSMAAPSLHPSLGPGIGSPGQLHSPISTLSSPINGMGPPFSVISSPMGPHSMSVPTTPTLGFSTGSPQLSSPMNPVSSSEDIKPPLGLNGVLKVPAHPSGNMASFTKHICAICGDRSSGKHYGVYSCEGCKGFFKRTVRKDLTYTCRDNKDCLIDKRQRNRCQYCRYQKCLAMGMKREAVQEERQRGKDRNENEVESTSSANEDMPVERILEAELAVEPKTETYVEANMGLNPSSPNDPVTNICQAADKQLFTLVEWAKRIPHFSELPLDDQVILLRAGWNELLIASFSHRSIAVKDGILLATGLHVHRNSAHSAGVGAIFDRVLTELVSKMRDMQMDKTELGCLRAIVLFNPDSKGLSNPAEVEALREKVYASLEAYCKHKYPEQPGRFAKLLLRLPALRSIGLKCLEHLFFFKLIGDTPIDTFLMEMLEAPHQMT
Assay: In Vitro FXR Assay (TK): TK-ECRE-luc reporter in transfected CV-1 cells
Format: cell-based
Conditions: 18 hrs, luminescence, maximum efficacy of <25% of the Fexarmine control classified as '+'
Outline: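 Luciferase read-out after 18 h compound exposure of CV-1 cells carrying transfected hFXR plus hRXR expression plasmids, TK-ECRE-luc reporter and pCMX-YFP. Cells cultured in charcoal-stripped FBS before transfection; compounds serially diluted in DMSO.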

Row | EC50 | Structure (SMILES)
1 | ≤ 250 nM | COCCO[C@H]1CC[C@H](C(=O)N(C[C@H]2CC[C@H](c3ccc(OC)c(C)c3)CC2)c2cccc(-c3cnc(OC)s3)c2)CC1 [Compound 13.01, trans-N-((trans-4-(4-Methoxy-3-methylphenyl)cyclohexyl)methyl)-4-(2-methoxyethoxy)-N-(3-(2-methoxythiazol-5-yl)phenyl) cyclohexanecarboxamide]
2 | ≤ 250 nM | COc1ccc([C@H]2CC[C@H](CN(c3cc(-c4coc(C(C)C)n4)ccn3)C(=O)[C@H]3CC[C@H](OC(=O)N4CC(CO)C4)CC3)CC2)nc1C [Compound 7.97, trans-4-((4-(2-Isopropyloxazol-4-yl)pyridine-2-yl)((trans-4-(5-methoxy-6-methylpyridin-2-yl)cyclohexyl)methyl)carbamoyl)cyclohexyl 3-(hydroxymethyl)azetidine-1-carboxylate]
3 | ≤ 250 nM | COC(=O)[C@H]1CC[C@H](C(=O)N(C[C@H]2CC[C@H](c3ccc(N(C)C)nc3)CC2)c2cccc(-c3cnc(C4CC4)s3)c2)CC1 [Compound 18.08, trans-Methyl 4-((3-(2-cyclopropylthiazol-5-yl)phenyl)((trans-4-(6-(dimethylamino)pyridin-3-yl)cyclohexyl)methyl)carbamoyl) cyclohexanecarboxylate]
4 | ≤ 250 nM | CN(C)c1ccc(C23CCC(CN(c4cccc(-c5cnn(C6CC6)c5)c4)C(=O)[C@H]4CC[C@H](OC(=O)NCCO)CC4)(CC2)CC3)cn1 [Compound 4.12, 4-((3-(1-Cyclopropyl-1H-pyrazol-4-yl)phenyl)((4-(6-(dimethylamino)pyridin-3-yl)bicyclo[2.2.2]octan-1-yl)methyl)carbamoyl)cyclohexyl (2-hydroxyethyl)trans-carbamate]
5 | ≤ 250 nM | COc1ccc([C@H]2CC[C@H](CN(c3cccc(-c4cnn(C5CC5)c4)c3)C(=O)[C@H]3CC[C@H](OC(=O)NCc4ncc[nH]4)CC3)CC2)cc1C [Compound 4.13, trans-4-((3-(1-Cyclopropyl-1H-pyrazol-4-yl)phenyl)((trans-4-(4-methoxy-3-methylphenyl)cyclohexyl)methyl)carbamoyl)cyclohexyl ((1H-imidazol-2-yl)methyl)carbamate]
6 | ≤ 250 nM | COCC(=O)N[C@H]1CC[C@H](C(=O)N(C[C@H]2CC[C@H](c3ccc(OC)c(C)c3)CC2)c2cccc(-c3cnc(C4CC4)s3)c2)CC1 [Compound 25.12, trans-N-(3-(2-Cyclopropylthiazol-5-yl)phenyl)-N-((trans-4-(4-methoxy-3-methylphenyl)cyclohexyl)methyl)-4-(2-methoxyacetamido) cyclohexanecarboxamide]
7 | ≤ 250 nM | COc1ccc([C@H]2CC[C@H](CN(c3cc(-c4coc(C5CC5)n4)ccn3)C(=O)[C@H]3CC[C@H](OC(=O)N4CC(N(C)C)C4)CC3)CC2)nc1C [Compound 7.79, trans-4-((4-(2-Cyclopropyloxazol-4-yl)pyridine-2-yl)((trans-4-(5-methoxy-6-methylpyridin-2-yl)cyclohexyl)methyl)carbamoyl)cyclohexyl 3-(dimethylamino)azetidine-1-carboxylate]
8 | ≤ 250 nM | COc1ccc([C@H]2CC[C@H](CN(c3cccc(-c4cnn(C5CC5)c4)c3)C(=O)[C@H]3CC[C@H](OC(=O)NCCCCCN(C)C)CC3)CC2)cc1C [Compound 4.21, trans-4-((3-(1-Cyclopropyl-1H-pyrazol-4-yl)phenyl)((trans-4-(4-methoxy-3-methylphenyl)cyclohexyl)methyl)carbamoyl)cyclohexyl (5-(dimethylamino)pentyl)carbamate]
9 | ≤ 250 nM | COc1ccc([C@H]2CC[C@H](CN(c3cc(-c4coc(C(C)C)n4)ccn3)C(=O)[C@H]3CC[C@H](CC(=O)O)CC3)CC2)cc1C#N [Compound 21.11, 2-(trans-4-(((trans-4-(3-Cyano-4-methoxyphenyl)cyclohexyl)methyl)(4-(2-isopropyloxazol-4-yl)pyridin-2-yl)carbamoyl)cyclohexyl)acetic acid]
